Source: patent publication US20040023884A1, “Biologically active peptides from functional domains of bactericidal/permeability-increasing protein and uses thereof” (priority 1993, published 2004)
Values after ≈ are worked out from the molar mass of the structure shown. Square brackets hold non-standard residues; d marks the D form. Ends that are not written are not given here. Peptide text beside a SMILES is read from it. 1Nal = N[C@@H](Cc1cccc2ccccc12)C(=O)O

Tests used:
[1] = system: E. coli 0111:B4 (smooth) bacteria; test: Radial diffusion bactericidal assay, E. coli 0111:B4; assay type: cell-based; settings: for pmol added to well to achieve a 30 mm^2 bactericidal zone, E. coli O111:B4: radial diffusion, PROBIT analysis, E. coli O111:B4 (smooth)
RAW 264.7 cells = test: LPS neutralization cellular proliferation assay, RAW 264.7 cells; assay type: cell-based, mouse
Summary of the method: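 Mouse RAW 264.7 cells were primed 24 h with 50U/mL mouse γ-interferon, then exposed about 15 h to E. coli O113 LPS in serum-free RPMI with or without BPI peptides at 25 ng/mL–50 μg/mL. Proliferation was quantified by [^3H]-thymidine uptake, 1 μCi/well, added at 5 h.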

Staphylococcus aureus = test: Radial diffusion bactericidal assay, Staphylococcus aureus; assay type: cell-based; settings: S. aureus; for pmol added to well to achieve a 30 mm^2 bactericidal zone, S. aureus: radial diffusion, PROBIT analysis
C. albicans = test: Radial diffusion fungicidal assay, Candida albicans; assay type: cell-based; settings: radial diffusion
[2] = 3H-heparin binding assay (affinity and capacity); settings: for Heparin Capacity: heparin bound at saturation; for Kd: read-out: Heparin Affinity
Summary of the method: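 Peptide fragments were bound to PVDF-membrane wells and incubated with 3H-heparin in blocking buffer for 1 h at 4 °C. After washing, bound radioactivity was quantified by liquid scintillation counting, with BSA background subtracted; rBPI23 served as positive control.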

[3] = system: rough mutant E. coli J5 bacteria; test: Radial diffusion bactericidal assay, E. coli J5; assay type: cell-based; settings: for pmol added to well to achieve a 30 mm^2 bactericidal zone, E. coli J5: radial diffusion, PROBIT analysis, E. coli J5 (rough)
Summary of the method: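 Log-phase bacteria (3 h at 37 °C in tryptic soy broth), washed in 10 mM sodium phosphate pH 7.4, were embedded at 4×10^6 CFU/mL in underlayer agarose. BPI proteolytic fragments (5 or 10 μL) went into 3 mm wells for 3 h at 37 °C, then agarose overlay and overnight 37 °C growth. Clear zones were measured by micrometer.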

Candida albicans = assay type: cell-based

| Compound | pmol added to well to achieve a 30 mm^2 bactericidal zone, E. coli O111:B4 [1] | EC50 (peptide concentration at which the growth inhibitory effect of LPS was reversed by 50%) (RAW 264.7 cells) [µg/mL] | IC50 (peptide concentration at which RAW cell growth was inhibited by 50%) (RAW 264.7 cells) | pmol added to well to achieve a 30 mm^2 bactericidal zone, S. aureus (Staphylococcus aureus) | C. albicans: pmol required for 30 mm^2 zone (C. albicans) [pmol] | Heparin Capacity [2] [ng] | Kd [2] [nM] | pmol added to well to achieve a 30 mm^2 bactericidal zone, E. coli J5 [3] | MIC C. alb (Candida albicans) [µg/mL] | fold lower bactericidal activity than BPI.30 ([1]; E. coli 0111:B4) [fold] | fold lower bactericidal activity than BPI.30 (Staphylococcus aureus) [fold] | fold increase in heparin affinity vs BPI.30 [2] [fold] | fold reduction in heparin binding capacity vs BPI.30 [2] [fold] | fold lower bactericidal activity than BPI.30 ([3]; E. coli J5) [fold] |
| --- | --- | --- | --- | --- | --- | --- | --- | --- | --- | --- | --- | --- | --- | --- |
| CC[C@H](C)[C@H](N)C(=O)N[C@@H](CCCCN)C(=O)N[C@H](C(=O)N[C@@H](CO)C(=O)NCC(=O)N[C@@H](CCCCN)C(=O)N[C@@H](Cc1cccc2ccccc12)C(=O)N[C@@H](CCCCN)C(=O)N[C@@H](C)C(=O)N[C@@H](CCC(N)=O)C(=O)N[C@@H](Cc1ccccc1)C(=O)N[C@@H](CCCNC(=N)N)C(=O)N[C@@H](Cc1ccccc1)C(=O)N[C@@H](CC(C)C)C(=O)N[C@@H](CCCCN)C(=O)N[C@@H](CCCCN)C(=O)N[C@@H](CO)C(=O)N[C@@H](CCCCN)C(=O)N[C@H](C(=O)NCC(=O)N[C@@H](Cc1c[nH]c2ccccc12)C(=O)N[C@@H](CC(C)C)C(=O)N[C@H](C(=O)N[C@@H](CCC(N)=O)C(=O)N[C@@H](CC(C)C)C(=O)N[C@@H](Cc1ccccc1)C(=O)N[C@@H](Cc1c[nH]cn1)C(=O)N[C@@H](CCCCN)C(=O)N[C@@H](CCCCN)C(=O)O)[C@@H](C)CC)C(C)C)[C@@H](C)CC [BPI.93] (H-IKISGK[1Nal]KAQFRFLKKSKVGWLIQLFHKK-OH) | 10,118.98 pmol | 0.9 ± 0.25 | 9.7 ± 0.1 µg/mL (≈ 2.73 µM) | b (no detectable activity up to 5 μg/well) | >980.27 | 291.5 | 387 | 212.87 pmol |  |  |  |  |  |  |
| KSKVGWLIQLWHKK [BPI.82] | 3,681.30 pmol | 0.8 ± 0.1 | 18.8 ± 0.8 µg/mL | 11,027.00 pmol | 518.43 | 163.1 | 427 | 171.32 pmol | 3.13 |  |  |  |  |  |
| KSKVGWLIQLFHKKKWKAQKRFLK [BPI.74] | 30,610.36 pmol | 2.7 ± 0.3 | 18.8 ± 0.8 µg/mL | 4,290.18 pmol | >2148.21 | 207.3 | 218 | 731.94 pmol |  | 50 | 3.5 | 2 | 2 | 10 |
| KSKVGWLIFLFHKK [BPI.91] | b (no detectable activity up to 5 μg/well) |  | — (No proliferation decrease up to 50 μg/ml) | b (no detectable activity up to 5 μg/well) | >3843.54 | 181.2 | 288 | 21,014.73 pmol |  |  |  |  |  |  |
